In patent publication US20060128660A1, “FK228 analogs and methods of making and using the same” (Wisconsin Alumni Research Foundation, priority 2004, published 2006):

Columns and labels:
Trx = settings: human primary breast and colon tumor tissues, Butler et al. 2002; cited from earlier work
HDAC = test: Western blot analysis of histones (tetra-AcLys H4) isolated from treated Drosophila S2 cells; format: cell-based
Experimental: Drosophila S2 cells can be cultured in Schneider's medium and grown as previously described by Wade and co-workers for periods ranging from 12 h to 96 h (Ballestar et al., 2001, Eur. J. Biochem. 268: 5397-5406). Cells may then be lysed and nuclear extracts prepared according to Thompson and co-workers (Steffan, 2001, Nature 413: 739-743). Lysates are then be subjected to differing concentrations of HDAC inhibitors and/or reductants (Barlow et al., 2001, Exp. Cell Res. 265: 90-103).
H2B detection was used to ensure equivalent protein loading to each well. […] Cells in all reactions were incubated at ambient temperature in media that contained 20 μM of each respective synthetic agent. Incubations were conducted for either 48 or 72 hours prior to nuclei isolation and processing.
H2B detection was used to ensure equivalent protein loading to each well. […] Lane 1 is a dioxane solvent control and concentrations of “drug” in cell medium are indicated above each lane. All cells were treated for a period of 48 hours at ambient temperature prior to nuclei isolation and processing.
Briefly, 2×10^6 cells in 10 mL medium are brought to 2×10^−5 M in synthetic intermediate and then allowed to incubate at ambient temperature for specified times. […] Histone H2B was detected in each case in order to verify equal protein loadings for each lane.

SMILES: O=C(CCCCCCC(=O)Nc1ccccc1)NO [SAHA]
- effect on Trx (Trx): down regulates Trx

SMILES: O=C(CCCCCS)NC(CO)CSCc1ccccc1 (stereo not drawn) [compound 33]
- acetylated H4 in histones isolated from treated cells (Western blot) (HDAC; 20 μM, 48 or 72 hours, ambient temperature (FIG. 3A)): a significant amount of acetylated H4
- cellular HDAC inhibition (Western blot data) (HDAC; at −20 μM concentration): potent cellular HDAC inhibitors
